Assay results taken from patent US6184252A, “2-amino-1,3-alkanediol compositions for inducing/stimulating hair growth and/or retarding hair loss” (priority 1996, dated 2001).
Where two headings read alike, the source gives them in different places.

What was measured:
Format in all cases: cell-based
[1] = tested on: HaCat cells (cultured keratinocytes); test: Proliferative influence on cultured keratinocytes (cell counting with Coulter Counter); conditions: Homo sapiens, 120 h, 5 days, read-out: increase in the number of cells with respect to the control; for activation at 0.0005 µM: 0.5 nM; for activation at 0.005 µM: 5 nM; for activation at 0.05 µM: 50 nM; for activation at 0.5 µM: 500 nM
Method: Measurement of the Proliferative Influence of 2-amino-1,3-octadecanediol and Derivatives Thereof on Cultured Keratinocytes
HaCat cells (Boukamp and coworkers, J. Cell Biol., vol. 106, March 1988, 761-771) were cultured in DMEM medium (marketed by Gibco) containing amino acids (mixture of nonessential amino acids) at a concentration of 0.1 mM, penicillin and streptomycin at respective concentrations of 50 International Units per […] and of 50 μg/ml, glutamine at a concentration of 2 mM, sodium pyruvate at a concentration of 1 mM and 10% fetal calf serum. These cells were inoculated at a density of 10,000 cells per well in the 24 wells of plates of the multiwell type (Costar, France). 24 hours after inoculation, the cells were contacted with the various test compounds in a KBM medium (marketed by Clonetics) containing 0.15 mM of calcium ion, insulin at 5 μg/ml, hydrocortisone at 0.5 μg/ml and lipid-free bovine serum albumin at 1 μg/ml.
Cellular counting was carried out 5 days after the addition of the various ceramides using a cell counter of the Coulter Counter type.
The various compounds were tested at 0.5 nM, 5 nM, 50 nM and 500 nM.
The results, expressed as percentage, represent the increase in the number of cells with respect to the control, namely, with respect to a culture produced under the same conditions in the absence of sphinganine.

[2] = tested on: hair follicle; test: Survival of the hair follicle in vitro; conditions: Homo sapiens, read-out: percentage of surviving follicles
Method: Viable in vitro hair follicles were prepared according to the technique described in FR-95/08,465, filed Jul. 12, 1995 and assigned to the assignee hereof. From a scalp biopsy, a rather fine strip of scalp was isolated using a scalpel. The adipose tissue surrounding the follicles was removed with microforceps while avoiding damage to the hair bulb. The follicle was cut and removed with a scalpel under a microscope in order to separate it from its epidermal and dermal surroundings. The fragment obtained was maintained in culture in Williams E medium, at 37° C., in a humid atmosphere in the presence of CO2. The survival of the follicles was evaluated each day by counting the living follicles, according to their morphological appearance. The results are reported as percentage of surviving follicles per day. The experiment was carried out employing the following compounds at a concentration of 50 nM: in comparison with the culture medium without alkanediol (A).

[3] = tested on: HaCat cells; test: Cell viability in the presence of doxorubicin (XTT kit); conditions: for increase in the number of cells with respect to the control (A): read at 48 hours
Method: Effect of 2-amino-1,3-octadecanediol and Derivatives Thereof on Cell Viability in the Presence of Doxorubicin
HaCat cells were cultured as in Example 2.
(§1) 24 hours after inoculation, the cells were contacted with the various test compounds in a KBM medium (marketed by Clonetics) containing insulin at 5 μg/ml and hydrocortisone at 0.5 μg/ml.
The cells were cultured in the presence of the 2-amino-1,3-octadecanediol to be tested until evaluation of cell viability.
Doxorubicin at a concentration of 1 μg/ml was added to the culture medium for 2 hours at the beginning of the experiment.
(§2) Cell viability was evaluated 48 hours later by measuring the mitochondrial respiration. This was carried out using an XTT kit, marketed by Boehringer, according to the supplier's instructions.
(§3) The experiment was carried out with the following compounds at a concentration of 50 nM:
in comparison with the culture medium without alkanediol and without doxorubicin (A) and with a medium containing only doxorubicin (B).
The results, expressed as percentage, represent the increase in the number of cells with respect to the control (A), namely, with respect to a culture produced under the same conditions in the absence of alkanediol compounds and of doxorubicin.

[4] = tested on: HaCat cells (cultured keratinocytes); test: Cell viability (mitochondrial respiration, XTT kit); conditions: for activation at 0.05 µM: Homo sapiens, HaCaT, read-out: increase in the number of cells with respect to the control (cell viability)
Method: Measurement of the Effect of 2-amino-1,3-octadecanediol and Derivatives Thereof on Cell Viability
HaCat cells were cultured as in Example 1.
(§4) These were then inoculated at a density of 20,000 cells per well in the 24 wells of plates of the multiwell type (Costar, France).
as §1, §2
The compounds A, B and C of the above Example 1 were tested at a concentration of 50 nM, as well as a derivative based on sphingenine: N-palmitoylsphingenine marketeed by Sigma (C16H).

[5] = tested on: HaCat cells (keratinocytes); test: Effect on the cell cycle (BrdU incorporation, entry into S phase); conditions: 50 nM; for activation at 0.05 µM: Homo sapiens, HaCaT, read-out: increase in the number of cells which have entered into the S phase with respect to the control
Method: Measurement of the Effect of 2-amino-1,3-octadecanediol and Derivatives Thereof on the Cell Cycle
HaCat cells were cultured as above.
as §4
24 hours after inoculation, the cells were contacted with the various test compounds in a KBM medium (marketed by Clonetics) containing insulin at 5 μg/ml and hydrocortisone at 0.5 μg/ml and 5-bromo-2'-deoxyuridine (BrdU) at 1 μM.
[…] This was carried out using a BrdU fast kit, marketed by Boehringer, according to the supplier's instructions.
The compounds A, B and C of the above example were tested at a concentration of 50 nM.
The results, expressed as percentage, represent the increase in the number of cells which have entered into the S phase with respect to the control, namely, with respect to a culture produced under the same conditions in the absence of alkanediol compounds.

[6] = tested on: HaCat cells
Method: Effect of 2-amino-1,3-octadecanediol and Derivatives Thereof on Cell Viability in the Presence of a Compound Based on Sphingenine, N-acetylsphingenine
The cells were cultured as in Example 5. N-Acetylsphingenine was at a concentration of 10 μM.
as §3
in comparison with the culture medium without alkanediol and without N-acetylsphingenine (A) and with a medium containing only N-acetylsphingenine (B).
The results, expressed as percentage, represent the number of cells with respect to the control (A), namely, with respect to a culture produced under the same conditions in the absence of alkanediol compounds and of N-acetylsphingenine.

[7] = alkanediol 50 nM in presence of doxorubicin 1 μg/ml for 2 hours

| SMILES | activation at 0.0005 µM [1] | activation at 0.005 µM [1] | activation at 0.05 µM [1] | activation at 0.5 µM [1] | increase in the number of cells with respect to the control (A) [3, 7] | viability of the cultured keratinocytes (in words) ([4]; 50 nM, 48 hours) | number of keratinocytes which have entered into the S phase (in words) [5] | activation at 0.05 µM ([5]; 72 hours) | activation at 0.05 µM ([5]; 96 hours) | also measured |
| --- | --- | --- | --- | --- | --- | --- | --- | --- | --- | --- |
| CCCCCCCCCCCCCCCC(O)C(CO)NC(=O)CCCCCCC (stereo not drawn) [F, 2-octanoylamino-1,3-octadecanediol] | 15% | 18% | 31% | 27% |  |  |  |  |  |  |
| CCCCCCCCCCCCCCCC(O)C(CO)NC(=O)C(O)CCCCCCCCCCCCCC (stereo not drawn) [C, 2-N-(2-hydroxyhexadecanoyl)amino-1,3-octadecanediol] | 26% | 36% | 42% | 22% | +23% | increased the viability of the cultured keratinocytes | increase the number of keratinocytes which have entered into the S phase | 17% | 43% | viability at 0.05 µM ([2]; 0 h, 50 nM, day 0): 100%; viability at 0.05 µM ([2]; 24 h, 50 nM, day 1): 100%; viability at 0.05 µM ([2]; 120 h, 50 nM, day 5): 100%; viability at 0.05 µM ([2]; 240 h, 50 nM, day 10): 50%; viability at 0.05 µM ([2]; 360 h, 50 nM, day 15): 42%; viability at 0.05 µM ([2]; 480 h, 50 nM, day 20): 25%; viability at 0.05 µM ([2]; 600 h, 50 nM, day 25): 0%; activation at 0.05 µM ([4]; 50 nM, 48 hours): 20% |
| CCCCCCCCCCCCCCCC(O)C(N)CO (stereo not drawn) [A, 2-amino-1,3-octadecanediol] | 7% | 15% | 17% | 30% | +25% | increased the viability of the cultured keratinocytes | increase the number of keratinocytes which have entered into the S phase | 36% | 41% | viability at 0.05 µM ([2]; 0 h, 50 nM, day 0): 100%; viability at 0.05 µM ([2]; 24 h, 50 nM, day 1): 100%; viability at 0.05 µM ([2]; 120 h, 50 nM, day 5): 90%; viability at 0.05 µM ([2]; 240 h, 50 nM, day 10): 20%; viability at 0.05 µM ([2]; 360 h, 50 nM, day 15): 0%; viability at 0.05 µM ([2]; 480 h, 50 nM, day 20): 0%; viability at 0.05 µM ([2]; 600 h, 50 nM, day 25): 0%; activation at 0.05 µM ([4]; 50 nM, 48 hours): 17% |
| CCCCCCCC/C=C\CCCCCCCC(=O)NC(CO)C(O)CCCCCCCCCCCCCCC (stereo not drawn) [B, 2-oleoylamino-1,3-octadecanediol] | 17% | 24% | 23% | 14% | +28% | increased the viability of the cultured keratinocytes | increase the number of keratinocytes which have entered into the S phase | 43% | 51% | viability at 0.05 µM ([2]; 0 h): 100%; viability at 0.05 µM ([2]; 24 h): 100%; viability at 0.05 µM ([2]; 120 h): 100%; viability at 0.05 µM ([2]; 240 h): 78%; viability at 0.05 µM ([2]; 360 h): 33%; viability at 0.05 µM ([2]; 480 h): 0%; viability at 0.05 µM ([2]; 600 h): 0%; activation at 0.05 µM ([4]; 48 h): 23% |
| COc1cccc2c1C(=O)c1c(O)c3c(c(O)c1C2=O)C[C@@](O)(C(=O)CO)C[C@@H]3O[C@H]1C[C@H](N)[C@H](O)[C@H](C)O1 [Doxorubicin, reference compound] |  |  |  |  |  |  |  |  |  | cell viability in the presence of doxorubicin (in words) ([3]; doxorubicin 1 μg/ml for 2 hours, alkanediol 50 nM): caused a decrease in cell viability; increase in the number of cells with respect to the control (A) ([3]; only doxorubicin, 1 μg/ml for 2 hours): -20% |
| CCCCCCCCCCCCCCCC(O)C(CO)NC(C)=O (stereo not drawn) [E, 2-acetylamino-1,3-octadecanediol] | 17% | 34% | 29% | 35% |  |  |  |  |  |  |
| CCCCCCCCCCCCC/C=C/[C@@H](O)[C@H](CO)NC(=O)CCCCCCCCCCCCCCC [Compound C16H, N-palmitoylsphingenine, reference compound] |  |  |  |  |  | elicited a cytotoxic effect on the cultured cells |  |  |  | increase in the number of cells with respect to the control (cell viability) ([4]; 50 nM, 48 hours): -25% |
| CCCCCCCCCCCCC/C=C/[C@@H](O)[C@H](CO)NC(C)=O [N-Acetylsphingenine] |  |  |  |  |  |  |  |  |  | cell viability in the presence of N-acetylsphingenine (in words) ([6]; N-acetylsphingenine 10 μM, alkanediol 50 nM): caused a decrease in cell viability; number of cells with respect to the control (A) ([6]; human, hacat cells, 48 h, 10 µM): 57% |
| CCCCCCCCCCCCCCCCCCCCCCCC(=O)NC(CO)C(O)CCCCCCCCCCCCCCC (stereo not drawn) [D, 2-tetracosanoylamino-1,3-octadecanediol] | 22% | 27% | 33% | 42% |  |  |  |  |  |  |
